Laboratory results published in US4254147A, “Pharmaceutical composition for total parenteral nutrition” (priority 1978, dated 1981).

Tests used:
[1] = Effective utilization of exogenous glycerides on daily carnitine dosing; assay type: in vivo, patient
Protocol: The dose of carnitine which is administered will be determined by the attending physician having regard to the age, weight and condition of the patient, using sound professional judgement. Although effective utilization of exogenous glycerides can be noticed at doses as low as from 30 to 50 mg/kg of body weight daily, a dose of from about 150 to about 200 mg/kg of body weight daily is preferred.

[2] = Activity and toxicity comparison of carnitine isomers (in words); conditions: isomers of carnitine compared
From the text: (§1) As known, carnitine contains an asimmetric atom and consequently exists in two stereoisomers. […] Thus, the LD50 in rats and mice assessed for various routes of administration according to the Litchfield and Wilcoxon method is as shown in the following Table A. (Litchfield, J. T., and Wilcoxon, F., J. Pharm. Exptl. Therap. 96, 99. 1949).

[3] = LD50 acute toxicity, mouse (Litchfield and Wilcoxon method); conditions: in vivo
From the text: as §1

[4] = LD50 acute toxicity, rat (Litchfield and Wilcoxon method); conditions: in vivo
From the text: as §1

With `C[N+](C)(C)CC(O)CC(=O)[O-]` (stereo not shown) [carnitine] the minimal effective dose ([1]; Homo sapiens, daily carnitine dose, read-out: dose at which effective utilization of exogenous glycerides can be noticed) was 30 to 50 mg/kg/day and the toxicity of carnitine ([1]; in vivo) was “extremely low toxicity”.
For `C[N+](C)(C)C[C@H](O)CC(=O)[O-]` [L-carnitine], the “activity of the isomer” value [2] was “more active” and the LD50 ([3]; sc) was 7000 mg/kg.
For `C[N+](C)(C)C[C@@H](O)CC(=O)[O-]` [D-carnitine], the “toxicity of the isomer” value [2] was “slightly more toxic”, the LD50 ([4]; sc) was 10000 mg/kg and the LD50 ([3]; sc) was 5400 mg/kg.
In the case of `C[N+](C)(C)CC(O)CC(=O)[O-]` (racemic) [D,L-carnitine], the LD50 ([4]; iv) is reported as 995 mg/kg, the LD50 ([3]; iv) is reported as 610 mg/kg and the LD50 ([3]; sc) is reported as 6000 mg/kg.
